Reference: ChEMBL document CHEMBL1201862, “PubChem BioAssay data set” (2004)
Each block holds one compound with its values, some of them ahead of it. The source made the active and inactive calls.

Experiments:
[1] = molecular target: Eukaryotic translation initiation factor 4E (Mus musculus, UniProt P63073); assay: blockers of eIF4G binding by eIF4E – biochemical, TR-FRET, dose response (AID 855); type: functional;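 further: potency for disrupting eIF4E binding to eIF4GI seen as loss of FRET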
[2] = molecular target: Ras and Rab interactor 1/Tyrosine-protein kinase ABL1 (Homo sapiens, UniProt P00519+Q13671); type: functional;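 further: biochemical TR-FRET dose-response test measuring inhibition of binding between Rin1 and Abl proteins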
Ras and Rab interactor 1/Tyrosine-protein kinase ABL1, sequence (P00519 whole entry): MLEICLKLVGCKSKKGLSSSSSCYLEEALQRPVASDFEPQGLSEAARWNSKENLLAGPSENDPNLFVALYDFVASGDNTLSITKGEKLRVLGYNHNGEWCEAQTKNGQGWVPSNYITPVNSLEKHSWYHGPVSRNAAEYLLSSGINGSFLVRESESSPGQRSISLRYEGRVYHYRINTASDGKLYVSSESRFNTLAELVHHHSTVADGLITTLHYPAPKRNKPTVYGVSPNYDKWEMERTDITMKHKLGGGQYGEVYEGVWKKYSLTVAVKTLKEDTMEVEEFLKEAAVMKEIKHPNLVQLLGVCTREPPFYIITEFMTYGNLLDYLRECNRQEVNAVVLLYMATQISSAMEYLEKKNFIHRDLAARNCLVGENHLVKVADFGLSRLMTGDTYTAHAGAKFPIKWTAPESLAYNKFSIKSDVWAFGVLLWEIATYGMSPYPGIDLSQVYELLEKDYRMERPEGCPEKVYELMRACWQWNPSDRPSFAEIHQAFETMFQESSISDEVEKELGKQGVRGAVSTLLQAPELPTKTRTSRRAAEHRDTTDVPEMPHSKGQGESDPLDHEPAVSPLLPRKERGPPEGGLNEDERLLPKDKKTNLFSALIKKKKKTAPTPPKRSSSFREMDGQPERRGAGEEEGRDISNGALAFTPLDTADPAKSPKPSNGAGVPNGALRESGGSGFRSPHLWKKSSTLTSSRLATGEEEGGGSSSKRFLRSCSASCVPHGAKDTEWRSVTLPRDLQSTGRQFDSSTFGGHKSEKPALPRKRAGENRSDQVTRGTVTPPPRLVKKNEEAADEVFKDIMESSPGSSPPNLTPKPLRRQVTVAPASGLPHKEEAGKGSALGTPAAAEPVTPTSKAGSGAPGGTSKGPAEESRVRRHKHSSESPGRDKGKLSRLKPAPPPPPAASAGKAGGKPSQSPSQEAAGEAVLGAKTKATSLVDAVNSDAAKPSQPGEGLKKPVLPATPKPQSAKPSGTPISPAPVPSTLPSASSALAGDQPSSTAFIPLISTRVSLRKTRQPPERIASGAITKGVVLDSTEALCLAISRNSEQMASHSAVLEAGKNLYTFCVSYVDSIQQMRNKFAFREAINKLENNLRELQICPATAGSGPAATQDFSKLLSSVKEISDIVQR
Ras and Rab interactor 1/Tyrosine-protein kinase ABL1, sequence (Q13671 whole entry): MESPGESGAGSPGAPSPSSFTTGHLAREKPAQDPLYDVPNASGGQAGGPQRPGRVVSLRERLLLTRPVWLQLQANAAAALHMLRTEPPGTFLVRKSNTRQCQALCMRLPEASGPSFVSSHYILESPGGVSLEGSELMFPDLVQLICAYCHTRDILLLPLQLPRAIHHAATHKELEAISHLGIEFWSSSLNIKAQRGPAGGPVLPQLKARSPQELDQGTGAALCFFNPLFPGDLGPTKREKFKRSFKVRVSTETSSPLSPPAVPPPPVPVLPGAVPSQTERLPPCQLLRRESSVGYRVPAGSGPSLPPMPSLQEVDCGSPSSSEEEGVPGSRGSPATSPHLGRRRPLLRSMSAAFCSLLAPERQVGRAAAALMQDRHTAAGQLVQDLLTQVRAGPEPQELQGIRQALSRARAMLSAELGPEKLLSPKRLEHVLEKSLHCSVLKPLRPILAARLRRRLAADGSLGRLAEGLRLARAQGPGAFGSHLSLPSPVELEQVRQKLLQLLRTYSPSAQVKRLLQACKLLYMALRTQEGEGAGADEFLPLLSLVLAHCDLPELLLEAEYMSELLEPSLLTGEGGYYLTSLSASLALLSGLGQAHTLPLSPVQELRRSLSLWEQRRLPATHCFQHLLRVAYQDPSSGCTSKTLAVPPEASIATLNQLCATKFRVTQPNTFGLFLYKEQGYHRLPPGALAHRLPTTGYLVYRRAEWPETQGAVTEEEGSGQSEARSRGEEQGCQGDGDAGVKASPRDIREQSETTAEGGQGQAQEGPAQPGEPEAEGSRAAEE

[3] = test system: Escherichia coli; assay: microbe, parasite or virus in culture
[4] = reduction of Shn3 3'UTR-driven luciferase in osteoblasts – cell-based, Clone20 osteoblasts, firefly luciferase, cherry-picked, dose response (AID 624132); type: functional;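 further: firefly luciferase luminescence from reporter carrying the Shn3 3'UTR in osteoblasts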
[5] = loss of viability in HepG2 cells – cell-based, CellTiter-Glo, cherry-picked, cytotoxicity control for Shn3 inhibitor project, dose response (AID 624134); type: functional
[6] = non-specific 3'UTR reporter inhibition in Clone20-Shn3RL – cell-based, Renilla luciferase, cherry-picked, counter-screen for Shn3 inhibitor project, dose response (AID 624133); type: functional
[7] = molecular target: Paired box protein Pax-8 (Homo sapiens, UniProt Q06710); assay: PAX8 transcriptional activity inhibition in RMG-I – RMG-I cells, luciferase, cherry-pick, dose response (AID 687027); type: functional, cell-based;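 further: luciferase reporter driven by Pax8 target thyroperoxidase promoter measured by SteadyGlo luminescence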
Paired box protein Pax-8, sequence (Q06710 whole entry): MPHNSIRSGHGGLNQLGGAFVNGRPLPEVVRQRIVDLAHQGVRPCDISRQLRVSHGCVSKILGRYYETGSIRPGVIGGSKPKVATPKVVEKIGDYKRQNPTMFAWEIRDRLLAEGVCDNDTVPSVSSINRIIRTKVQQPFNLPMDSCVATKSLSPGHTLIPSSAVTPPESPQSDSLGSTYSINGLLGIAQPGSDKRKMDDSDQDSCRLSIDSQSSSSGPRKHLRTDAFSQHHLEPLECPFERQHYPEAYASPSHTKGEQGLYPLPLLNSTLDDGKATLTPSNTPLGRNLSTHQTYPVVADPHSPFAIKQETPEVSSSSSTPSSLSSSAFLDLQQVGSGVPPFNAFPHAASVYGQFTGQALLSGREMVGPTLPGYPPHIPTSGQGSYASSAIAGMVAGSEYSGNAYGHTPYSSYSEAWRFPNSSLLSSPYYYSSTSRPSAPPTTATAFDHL

[8] = general cell-killing toxicity readout – plate reader, dry powder samples, cytotoxicity control for PAX8 inhibitor project, dose response (AID 743021); type: functional, cell-based
[9] = molecular target: T1, Low molecular weight phosphotyrosine protein phosphatase (Homo sapiens, UniProt P24666); type: functional; conditions: read-out: IC50_Mean;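 further: Dose-response confirmation assay measuring inhibition of LMPTP enzyme activity by fluorescence intensity read-out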
T1 sequence (P24666 whole entry): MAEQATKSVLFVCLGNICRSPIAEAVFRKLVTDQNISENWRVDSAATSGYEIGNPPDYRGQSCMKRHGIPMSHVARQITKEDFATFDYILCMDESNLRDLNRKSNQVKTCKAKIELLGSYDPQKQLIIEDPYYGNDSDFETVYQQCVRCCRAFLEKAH

[10] = cells; type: functional, cell-based
[11] = cells; type: functional, cell-based; remark: listed apart in the source
[12] = test system: P388/ADR; assay: cells; type: functional; conditions: Mus musculus
[13] = test system: SN12K1; assay: cells; type: functional; conditions: Homo sapiens
[14] = test system: P388; assay: cells; type: functional; conditions: Mus musculus
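Wherever EC50 is given: agonist potency from rise in intracellular calcium fluorescence.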

Eukaryotic translation initiation factor 4E, sequence (P63073 whole entry): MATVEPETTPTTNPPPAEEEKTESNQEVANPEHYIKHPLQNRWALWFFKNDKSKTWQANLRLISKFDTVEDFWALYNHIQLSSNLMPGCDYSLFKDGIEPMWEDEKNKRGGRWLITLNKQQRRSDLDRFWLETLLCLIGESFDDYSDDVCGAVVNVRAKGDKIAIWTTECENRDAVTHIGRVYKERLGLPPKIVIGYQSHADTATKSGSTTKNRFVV

IC50 [1]: > 64 µM (inactive)
Structure (SMILES): Nc1nnc(CC(=O)N2CCCCC2)s1

IC50 [2]: 2.39 µM (active)
Structure (SMILES): CCOC(=O)CCCCC(=O)c1[nH]c(=O)[nH]c1CSc1nc(C)cc(C)n1

Structure (SMILES): CS(=O)(=O)c1ccc(Cl)c(NC(=O)COC(=O)CCc2c[nH]c3ccccc23)c1
AC50 [3]: 31.5 µM (active)

Structure (SMILES): COC1CC2C=C(C)C=CC=CC(=O)NC(c3ccccc3)CC=CCCC(O)CC(O)=C2C1=O (stereo not drawn)
AC50 [4]: 0.629 µM (active) | AC50 [5]: 3.98 µM (active) | AC50 [6]: 1.48 µM (active) | AC50 [7]: 0.673 µM (active) | AC50 [8]: 4.97 µM (active)

Structure (SMILES): COc1ccc(OC)c(N(CCN2C(=O)c3ccccc3C2=O)C(=O)CCl)c1
AC50 [7]: 0.966 µM (active) | AC50 [8]: 2.34 µM (active)

IC50 [2]: 2.94 µM (active)
Structure (SMILES): O=C(c1cc(COc2cccc3cccnc23)on1)N1CCC[C@H]1CO

IC50 [9]: 16.2 µM (active)
Structure (SMILES): O=C(O)c1ccc(/C=N/NC(=O)c2cc3c(ccc4ccccc43)o2)cc1

IC50 [1]: > 64 µM (inactive)
Structure (SMILES): O=[N+]([O-])c1cccc(-c2ccc(/C=N/n3c(S)nnc3-c3ccccc3)o2)c1

Structure (SMILES): CN(C)S(=O)(=O)c1ccc(C(=O)NCC(=O)N/N=C/c2ccccc2)cc1
IC50 [10]: > 29.9 µM (inactive) | EC50 [11]: > 29.9 µM (inactive)

Structure (SMILES): NCc1c(O)ccc2ccccc12
IC50 [10]: > 29.9 µM (inactive) | EC50 [11]: > 29.9 µM (inactive)

Structure (SMILES): C[C@H](N)C(=O)N[C@@H]1[C@H]2C(=C(O)C[C@@H](O)[C@@H]2O)C(=O)O[C@]1(C)C(Cl)Cl [BACTOBOLIN]
GI50 [12]: 0.303 µM (active) | GI50 [13]: 0.297 µM (active) | GI50 [14]: 0.0807 µM (active)

Structure (SMILES): O=P1(NCCCl)OCCCN1CCCl (stereo not drawn) [IFOSFAMIDE]
GI50 [12]: 215 µM (inactive) | GI50 [13]: 371 µM (inactive) | GI50 [14]: 232 µM (inactive)
